Results from article PMC6150792 (Pain, 2018).
Where “and” joins values, the source holds several entries; their conditions need not be identical. Identical values can stand only once. Like-named read-outs stand apart in the source and are kept apart here. Ends that are not written are not given here.

Assays:
[1] = tested on: cytosolic Na+ in cultured DRG neurons; experiment: Sodium fluorescence imaging; type: cell-based, rat
Ubc9 = Ubc9 (Homo sapiens, UniProt P63279); experiment: MST, t-CSM binding to NT-647 labeled Ubc9
SNI rats = settings: rat, in vivo
SUMOylation = settings: cited from earlier work
[2] = target: recombinant human CRMP2-His (collapsin response mediator protein 2) (human) (UniProt Q16555); experiment: MST
[3] = target: recombinant human CRMP2-His (collapsin response mediator protein 2) (human) (UniProt Q16555); experiment: MST; remark: listed apart in the source
[4] = target: recombinant human CRMP2-His (collapsin response mediator protein 2) (human) (UniProt Q16555); experiment: MST; remark: listed apart in the source
[5] = target: recombinant human CRMP2-His (collapsin response mediator protein 2) (human) (UniProt Q16555); experiment: AlphaScreen or HTRF
[6] = target: recombinant human CRMP2-His (collapsin response mediator protein 2) (human) (UniProt Q16555); experiment: MST; remark: listed apart in the source
NaV1.7 = settings: CAD cells; ref [20]; [21]; cited from earlier work
[7] = tested on: presynaptic N-type voltage-gated calcium channels; settings: ref [66]; cited from earlier work
[8] = tested on: model of postoperative, neuropathic, pain, and cephalic pain; settings: ref [63], [65]; cited from earlier work
[9] = tested on: CRMP2 residue S522 phosphorylation by Cdk5; settings: ref [66]; cited from earlier work
CRMP2 = experiment: Microscale thermophoresis; parameters: species or system human; settings: read-out: apparent Kd, Ubc9 binding to CRMP2; MST; Ubc9-GST 0.003-100 μM; NT-647 labeled CRMP2; PBS-T (0.05% Tween-20), room temperature, 10 min; no cofactor; mean ± SEM, n=3
Ubc9-CRMP2 interaction = Ubc9-CRMP2 interaction (Homo sapiens, UniProt P63279); experiment: ALPHA assay, Ubc9-GST binding to CRMP2-His and its disruption; settings: binding stable over at least this window
humans = settings: current clinically used medication; no reference given; cited from earlier work

NC1=N[C@H](O)[C@H]2[C@H]3O[C@]4(O)O[C@@H]([C@@H](O)[C@@]2(N1)[C@@H]4O)[C@]3(O)CO [TTX, tetrodotoxin]
ouabain-induced increase in [Na+]c [1]: inhibited

YGRKKRRQRRRGKMDENQ [t-CSM]
Kd (Ubc9): 400 ± 100 nM | motor impairment or sedation (naïve male SD rats; rat, in vivo): no motor impairment or sedation | time on rotarod (naïve male SD rats; rat, in vivo): 180 ± 0 s | motor performance in SNI rats (SNI rats): did not affect motor performance at any time point

COC1=C(c2c(OC)cc3cc4c(c(O)c3c2O)C(=O)O[C@H](C)C4)C(=O)c2c(cc3c(c2O)C(=O)O[C@H](C)C3)C1=O [viomellein]
inhibition of SUMOylation (SUMOylation; ref [35]): inhibitors of SUMOylation

C[C@@H]1O[C@@H](O[C@H]2C[C@@H](O)[C@]3(CO)[C@H]4[C@H](O)C[C@]5(C)[C@@H](C6=CC(=O)OC6)CC[C@]5(O)[C@@H]4CC[C@]3(O)C2)[C@H](O)[C@H](O)[C@H]1O [Ouabain]
effect on [Na+]c of ouabain alone ([1]; ouabain 1 mM alone, SBFI): increase in [Na^+]c

ginkgolic acid
inhibition of SUMOylation (SUMOylation; ref [27]): inhibitors of SUMOylation

Ubc9-GST fusion protein (E2 SUMO-conjugating enzyme Ubc9) (from UniProt P63279 1-158)
Kd [2]: 7.6 µM | Kd [3]: 26 µM | Kd [4]: 25.5 µM | Kd [5]: 800 nM | Kd [6]: 12.2 µM | other [6]: 80 µM and 137 µM

Huwentoxin-IV
contribution of NaV1.7 to total sodium currents by isoform-specific blockade (NaV1.7): ~ 80%

C[C@H]1Oc2cc3c(-c4c(O)cc(O)c5c(O)c6c(cc45)O[C@H](C)[C@@H](C)C6=O)c(O)cc(O)c3c(O)c2C(=O)[C@@H]1C [chaetochromin A]
inhibition of SUMOylation (SUMOylation; ref [35]): inhibitors of SUMOylation

COC[C@H](NC(C)=O)C(=O)NCc1ccccc1 [(S)-lacosamide]
calcium influx [7]: decrease of calcium influx | thermal hypersensitivity and mechanical allodynia [8]: mitigation of thermal hypersensitivity and mechanical allodynia | CRMP2 phosphorylation by Cdk5 [9]: inhibiting phosphorylation by Cdk5

C[C@@H]1O[C@@H](O[C@H]2[C@H](O)C[C@H](c3ccc4c(c3O)C(=O)C3=C(C4=O)[C@@]4(O[C@H]5CC[C@H](O)[C@H](C)O5)C(=O)C[C@](C)(O)C[C@@]4(O)C=C3)O[C@@H]2C)CC[C@@H]1O[C@H]1C[C@@H](O)[C@H](O)[C@@H](C)O1 [kerriamycin B]
inhibition of SUMOylation (SUMOylation; ref [28]): inhibitors of SUMOylation

COC(=CC(=O)O)C1c2cc3ccc(-c4ccc5cc6c(c(O)c5c4O)C(=O)CC(C)(O)C6C(=CC(=O)O)OC)c(O)c3c(O)c2C(=O)CC1(C)O (stereo not shown) [spectomycin B1]
inhibition of SUMOylation (SUMOylation; ref [35]): inhibitors of SUMOylation

Ubc9: E2 SUMO-conjugating enzyme, recombinant Ubc9-GST fusion protein
Kd (CRMP2): 12.2 ± 2.7 µM | stability of Ubc9-CRMP2 binding signal (Ubc9-CRMP2 interaction): ≥ 18 h

NCC1(CC(=O)O)CCCCC1 [gabapentin]
ability to remain on the rotating rod (naïve male SD rats; gabapentin, naïve rats, data not shown): decrease in the ability of naïve rats to remain on the rotating rod | sedation in humans (humans): severe sedation in humans
